Ends that are not written are not given here. Peptide text beside a SMILES is read from it.
Legend:
[1] = tested on: A. baumannii 5075; settings: Week 1 (12/6/2023)
[2] = tested on: P. aeruginosa PA01 (Si); assay: microbe, parasite or virus in culture; format: cell-based; settings: Si
Description: Supplement 41522_2025_837_MOESM13_ESM.xlsx, sheet "Table_S13_ESKAPEE-MIC" | column: Bacterial MIC (µg/mL)

[3] = tested on: S. aureus ATCC 25923; assay: microbe, parasite or virus in culture; settings: ATCC 25923, 20 h
Experimental: (§1) Antimicrobial susceptibility testing of the 20 synthesized peptides against 17 bacterial strains of clinical relevance in the ESKAPEE panel was conducted using minimum inhibitory concentration (MIC) assays following the broth microdilution method outlined by Parker et al.[91]. The ESKAPEE panel is comprised of fourteen American Type Culture Collection (ATCC) strains and three Multidrug Resistant Organism Repository and Surveillance Network (MRSN) bacterial strains. These strains represent at least one drug-susceptible strain and one drug-resistant strain for each bacterium to assess drug efficacy across various resistance mechanisms. This panel is comprised of the following bacterial species and strains: E. faecium (ATCC 19434, ATCC 49224), S. aureus (ATCC 25923, ATCC 43300), K. pneumoniae (ATCC 700603, ATCC 13883, MRSN 1320), A. baumannii (ATCC 17978, ATCC 19606, MRSN 959), P. aeruginosa (ATCC 15692, ATCC 27853, MRSN 5519), E. cloacae (ATCC 13047, ATCC 35549), and E. coli (ATCC 35218, ATCC 43888). Bacteria were grown in cation-adjusted Mueller-Hinton broth (CAMHB) to achieve a final inoculum of 1 × 10⁵ CFU/mL. CAMHB is selected for its batch-to-batch reproducibility, low levels of antimicrobial inhibitors, and ability to support the growth of most bacterial pathogens.
(§2) Briefly, lyophilized peptides were dissolved in 0.2% TFA + 0.4% BSA in water to 2.56 mg/mL, ultrasonicated for 20 min, diluted 10-fold into CAMHB, and then serially diluted 2-fold in 0.02% TFA + 0.04% BSA in CAMHB and assayed at a concentration of 0.25 to 128 μg/mL. Assays were set up using the Tecan Freedom EVO liquid handling robot and software (Tecan, Switzerland) with 50 μL of bacterial inoculum and 50 μL of peptide transferred into round-bottom 96-well microtiter plates. Each plate assay was performed in duplicate and incubated at 37 °C for 20 h without agitation. Bacterial growth was assessed using the BIOMIC V3 Image Analysis system (Giles Scientific, USA) and the MIC values were determined visually according to the Clinical and Laboratory Standards Institute (CLSI) guidelines.

[4] = tested on: E. cloacae ATCC 35549; assay: microbe, parasite or virus in culture; settings: ATCC 35549, 20 h
Experimental: as §1, §2

[5] = tested on: E. faecium ATCC 19434; assay: microbe, parasite or virus in culture; settings: ATCC 19434, 20 h
Experimental: as §1, §2

[6] = tested on: E. coli ATCC 43888; assay: microbe, parasite or virus in culture; settings: ATCC 43888, 20 h
Experimental: as §1, §2

[7] = tested on: A. baumannii ATCC 17978; assay: microbe, parasite or virus in culture; settings: ATCC 17978, 20 h
Experimental: as §1, §2

[8] = tested on: E. cloacae ATCC 13047; assay: microbe, parasite or virus in culture; settings: ATCC 13047, 20 h
Experimental: as §1, §2

[9] = tested on: A. baumannii ATCC 19606; assay: microbe, parasite or virus in culture; settings: ATCC 19606, 20 h
Experimental: as §1, §2

[10] = tested on: P. aeruginosa MRSN 5519; assay: microbe, parasite or virus in culture; settings: MRSN 5519, 20 h
Experimental: as §1, §2

[11] = tested on: P. aeruginosa ATCC 27853; assay: microbe, parasite or virus in culture; settings: ATCC 27853, 20 h
Experimental: as §1, §2

[12] = tested on: S. aureus ATCC 43300; assay: microbe, parasite or virus in culture; settings: S. aureus 43300; Week 1 (12/6/2023)
Experimental: as §1, §2

[13] = tested on: E. coli ATCC 35218; assay: microbe, parasite or virus in culture; settings: E. coli 35218; Week 1 (12/6/2023)
Experimental: as §1, §2

[14] = tested on: E. faecium ATCC 49224; assay: microbe, parasite or virus in culture; settings: ATCC 49224, 20 h
Experimental: as §1, §2

[15] = tested on: K. pneumoniae ATCC 13883; assay: microbe, parasite or virus in culture; settings: ATCC 13883, 20 h
Experimental: as §1, §2

[16] = tested on: K. pneumoniae ATCC 700603; assay: microbe, parasite or virus in culture; settings: K. pneumoniae 700603; Week 1 (12/6/2023)
Experimental: as §1, §2

[17] = set-up: method as in Biomatik (vendor); settings: 1.0 mg peptide in 1.0 ml solvent; peptides synthesized by Biomatik; ref Biomatik (vendor); cited from earlier work
[18] = tested on: K. pneumoniae 4640; settings: 4640, 20 h

Molecule	Bacterial MIC [1]	Bacterial MIC [2]	Bacterial MIC [3]	Bacterial MIC [4]	Bacterial MIC [5]	Bacterial MIC [6]	Bacterial MIC [7]	Bacterial MIC [8]	Bacterial MIC [9]	Bacterial MIC [10]	Bacterial MIC [11]	Bacterial MIC [12]	Bacterial MIC [13]	Bacterial MIC [14]	Bacterial MIC [15]	Bacterial MIC [16]	Suggest solvent (solubility) [17]	Bacterial MIC [18]
LHTKRVQNKKKNGNRRQTIGKKCTAGFICKKEYLKLNPGIYSVIHD (cysteines drawn unpaired) [Tr-Eb1]	>128.000 µg/mL	>128.000 µg/mL	>128.000 µg/mL	>128.000 µg/mL	>128.000 µg/mL	>128.000 µg/mL	>128.000 µg/mL	>128.000 µg/mL	>128.000 µg/mL	>128.000 µg/mL	>128.000 µg/mL	>128.000 µg/mL	>128.000 µg/mL	>128.000 µg/mL	>128.000 µg/mL	>128.000 µg/mL	1.0mg peptide soluble in 1.0ml DMSO	>128.000 µg/mL
CC[C@H](C)[C@H](NC(=O)[C@H](CO)NC(=O)[C@H](CO)NC(=O)[C@H](Cc1ccccc1)NC(=O)[C@H](CS)NC(=O)CNC(=O)[C@@H]1CCCN1C(=O)[C@H](CCCNC(=N)N)NC(=O)[C@H](CCCNC(=N)N)NC(=O)CNC(=O)[C@H](CS)NC(=O)[C@H](CCCNC(=N)N)NC(=O)[C@H](CCCNC(=N)N)NC(=O)[C@@H]1CCCN1C(=O)[C@H](C)NC(=O)CNC(=O)[C@H](CCCNC(=N)N)NC(=O)[C@@H](NC(=O)[C@H](CC(C)C)NC(=O)[C@H](CCCNC(=N)N)NC(=O)[C@@H](NC(=O)CNC(=O)[C@H](CCCNC(=N)N)NC(=O)[C@H](CCCCN)NC(=O)[C@@H](NC(=O)[C@H](Cc1c[nH]cn1)NC(=O)[C@@H](NC(=O)[C@@H](N)CCC(=O)O)[C@@H](C)CC)[C@@H](C)O)[C@@H](C)O)C(C)C)C(=O)NCC(=O)N[C@@H](CCCCN)C(=O)N[C@H](C(=O)N[C@@H](CCC(=O)O)C(=O)O)C(C)C [TrPr-Eb2] (H-EIHTKRGTRLVRGAPRRCGRRPGCFSSIGKVE-OH; N-terminus and C-terminus assumed)	>128.000 µg/mL	>128.000 µg/mL	>128.000 µg/mL	>128.000 µg/mL	>128.000 µg/mL	>128.000 µg/mL	>128.000 µg/mL	>128.000 µg/mL	>128.000 µg/mL	>128.000 µg/mL	>128.000 µg/mL	>128.000 µg/mL	>128.000 µg/mL	>128.000 µg/mL	>128.000 µg/mL	>128.000 µg/mL	1.0mg peptide soluble in 1.0ml H2O	>128.000 µg/mL
IRRPPGFSPFR [PrAd-Eb8]	>128.000 µg/mL	>128.000 µg/mL	>128.000 µg/mL	>128.000 µg/mL	>128.000 µg/mL	>128.000 µg/mL	>128.000 µg/mL	>128.000 µg/mL	>128.000 µg/mL	>128.000 µg/mL	>128.000 µg/mL	>128.000 µg/mL	>128.000 µg/mL	>128.000 µg/mL	>128.000 µg/mL	>128.000 µg/mL	1.0mg peptide soluble in 1.0ml H2O	>128.000 µg/mL
CC[C@H](C)[C@H](NC(=O)CNC(=O)CNC(=O)[C@@H](NC(=O)[C@H](CS)NC(=O)[C@H](CCCCN)NC(=O)[C@H](CCCCN)NC(=O)CNC(=O)[C@@H](NC(=O)[C@@H]1CCCN1C(=O)[C@@H](N)CCC(N)=O)[C@@H](C)CC)[C@@H](C)O)C(=O)N[C@@H](CC(N)=O)C(=O)N[C@@H](CS)C(=O)N[C@@H](CCCCN)C(=O)N[C@@H](CCCCN)C(=O)NCC(=O)N1CCC[C@H]1C(=O)N1CCC[C@H]1C(=O)N[C@@H](CCCNC(=N)N)C(=O)N[C@@H](CC(C)C)C(=O)N[C@@H](CCCCN)C(=O)N1CCC[C@H]1C(=O)NCC(=O)O [TrPr-Pc6] (H-QPIGKKCTGGINCKKGPPRLKPG-OH; N-terminus and C-terminus assumed)	>128.000 µg/mL	>128.000 µg/mL	>128.000 µg/mL	>128.000 µg/mL	>128.000 µg/mL	>128.000 µg/mL	>128.000 µg/mL	>128.000 µg/mL	>128.000 µg/mL	>128.000 µg/mL	>128.000 µg/mL	>128.000 µg/mL	>128.000 µg/mL	>128.000 µg/mL	>128.000 µg/mL	>128.000 µg/mL	1.0mg peptide soluble in 1.0ml H2O	>128.000 µg/mL
